Consider 2 compounds from patent US12441763B2, “Hangtaimycin derivatives and their preparation methods and application” (WUHAN UNIVERSITY, priority 2022, dated 2025).

Experiment [1] deals with HepG2 cells. The experiment is described as follows: Cellular assay for hepatoprotective activity, CCl4-induced liver injury cell model. Type of experiment: cell-based. The note with it: compared with the CCl4 group; HepG2 cell homogenates. The procedure:
HepG2 cells were seeded into 24-well plates and kept at 37° C. in 5% CO2 in order to achieve 80% fusion. To evaluate the effects of HTMA, HTMB, and HTMP on aspartate aminotransferase (AST) and alanine aminotransferase (ALT) activity, and compare the results with those of Silymarin (positive control) (FIG. 26), a cellular assay for hepatoprotective activity was carried out using a CCl4-induced liver injury cell model. The cells were treated with the compounds followed by ultrasound disruption and cell homogenization to prepare the cell homogenates for analysis.

Experiment [2] concerns carrageenan-induced paw inflammation. The experiment is described as follows: Anti-inflammatory effect in inflammatory model induced by carrageenan (paw). Format: in vivo, Kunming mice. The settings on record: 10 mg/mL; for right hind foot thickness: 10 μL subcutaneous into right hind paw, 4 hours after carrageenan injection, vs carrageenan+solvent group. Here is the method: Male Kunming mice weighing 18˜22 g were adaptively reared for 1 day, and then randomly divided into […] (5˜6 mice per group): the saline+solvent group, the saline+HTM group, the saline+HTMP group, the saline+HTMA group, the saline+HTMB group, the saline+rapamycin (250 nM) group, the carrageenan+solvent group, the carrageenan+HTM group, the carrageenan+HTMP group, the carrageenan+HTMA group, the carrageenan+HTMB group, and the carrageenan+rapamycin (250 nM) group. Where doses used for HTM, HTMP, HTMA, and HTMB were set at 1, 3, and 10 mg/mL, and their solutions all contained 5% DMSO. Experiments were designed based on previous studies (Zhang et al., 2018). Carrageenan was used to induce paw inflammation, and the experimental procedure was as follows:
(1) The thickness of the right hind foot of mice was measured with a vernier caliper before the experiment, and the measurement site was marked.
(2) The experimental group was then subcutaneously injected into the right hind paw with 10 μL of different concentrations of compound solutions. The control group was injected with 10 μL saline into the right hind paw.
(3) After administration, the carrageenan group was injected subcutaneously with 30 μL of 1% carrageenan solution into the right hind paw, and the other groups were injected with an equal volume of saline. The thickness of the right hind foot of each mouse was measured at the same site every 1 hour for the following 4 hours to observe the effect of the compounds on the change in foot thickness.
On the technique in general: Carrageenan injected into the paw causes an acute inflammation.

Experiment [3] has as its system acute inflammatory visceral pain caused by acetic acid. The experiment is described as follows: Writhing test (acetic acid). Format: in vivo, Balb/c mice. The settings on record: 30 minutes before 0.6% acetic acid i.p., counted within 20 minutes, vs solvent group, P<0.05. The procedure:
The writhing test: Male Balb/c mice weighting 18˜22 g were randomly divided into four groups (9˜10 per group): the vehicle group (DMSO:saline=1:4, 1 ml/kg), the HTMB (1 mg/kg) group, the HTMB (3 mg/kg) group, and the HTMB (10 mg/kg) group. After tail vein administration for 30 minutes, mice were injected intraperitoneally with 10 mL/kg of freshly prepared 0.6% acetic acid (Rediet Tesfaye, et al. 2020), and the number of body twists of mice was observed and recorded within 20 minutes.

For another experiment, the system named is morphine-induced CPP. Briefly: Conditioned place preference (CPP) experiments. Type of experiment: in vivo, SD rats. The settings on record: HTMB 3 mg/kg + morphine vs saline + morphine; test on the 10th day; P<0.05. Here is the method: Conditioned place preference (CPP) experiments: Morphine, an opioid representative, and cocaine, a euphoric representative, were used to establish a model of addiction. On the first day, the baseline was assessed by placing the rats in the center compartment of the CPP apparatus and allowing ad libitum access to all compartments for 15 minutes. And then, male SD rats were divided into the saline+morphine group, the HTMB (3 mg/kg)+morphine group, the saline+cocaine group, and the HTMB (3 mg/kg, i.p.)+cocaine group. The rats were exposed to CPP training from day 2 to 9. On the 10th day, the channel between the three boxes was opened, and the rats were allowed to move freely in the three boxes for 15 minutes for the CPP test.

Experiment [4] in a line: Antioxidant activity, DPPH free radical scavenging. Format: biochemical. The note with it: 1~50 μg/mL, 0.1 mM DPPH, absorbance at 517 nm. Here is the method: In this experiment, a 0.1 mM DPPH solution was prepared with ethanol, and each sample solution/dispersion was separately mixed with the DPPH solution in order to dilute it into a reaction product with a concentration gradient of 1˜50 μg/mL to evaluate the concentration-dependent antioxidant potential. The reaction product was measured for its absorbance (AS) at 517 nm using an ultraviolet-visible spectrophotometer, and its antioxidant activity was measured using DPPH removal as an indicator. The percentage of DPPH free radical scavenging is calculated by the following formula: […]
AS is the absorbance of the sample and A0 is the absorbance of the control (only DPPH solution).
On the technique in general: The DPPH test is a chemical assay of radical scavenging.

For another experiment, the system named is bladder cancer. The experiment is described as follows: Antitumor activity, MTT cell viability, bladder cancer. Format: cell-based. The note with it: 50 μg/mL, 24 hours, P<0.01. The procedure:
(§1) In a 96-well microplate, 100 μL of culture medium was put in each well and inoculate four cell strains with a fusion degree of 80% at a density of 8×10^3 cells. Cells were grown at 37° C., CO2 (5%) and air (95%). Each 96-well plate was placed with a concentration gradient of 0˜100 μg/mL of test compounds HTM, HTMA, HTMB, and HTMP. After 24 hours of incubation, the medium was removed, and 0.5 mg/mL MTT solution was added to each medium with cells and continue to incubate the cells for 4 hours at 37° C. Then 100 μL of DMSO was added to dissolve formazan crystals. Finally, absorbance was measured at 570 nm using a microplate reader (Bioteck EON, USA). The viability of the cells was calculated as the percentage of cell viability compared to vehicle control-treated cells, which were arbitrarily assigned as 100% viability. Each independent experiment was repeated five times. (*P<0.05, **P<0.01, ***P<0.001)

Another experiment relates to renal cancer. The experiment is described as follows: Antitumor activity, MTT cell viability, renal cancer. Format: cell-based. The note with it: […], 24 hours, P<0.01. The procedure: as §1
For a further experiment, the system named is breast cancer. Briefly: Antitumor activity, MTT cell viability, breast cancer. Format: cell-based. The note with it: 50 μg/mL, 24 hours. Here is the method: as §1
For experiment [5], the system named is alpha-naphthyl isothiocyanate-induced liver injury. The experiment is described as follows: Animal assay for hepatoprotective activity, alpha-naphthyl isothiocyanate-induced liver injury. Type of experiment: in vivo, Wistar rats. Here is the method: Male Wistar rats weighing around 220 g were randomly divided into 7 groups with 12 rats in each group. After grouping, they were fed a standard diet under standard conditions and were orally gavaged continuously. The dosages of the positive control groups obeticholic acid and silymarin were 10 mg/kg and 5 mg/kg respectively. The HTMA group was divided into low, medium, and high-dose groups with doses of 2.5, 5, and 10 mg/kg. The control and model groups were orally gavaged with 0.5% sodium carboxymethyl cellulose (solvent) daily. After 7 days of gavage, the rats fasted for 12 hours. On the 8th day, their weight was measured, and all rats except for the control group were intraperitoneally injected with alpha-naphthyl isothiocyanate (50 mg/kg, dissolved in olive oil) to induce liver injury. The rats in the control group were intraperitoneally injected with the same amount of olive oil. After two more days of gavage and 12 hours of fasting, blood samples were taken to detect biochemical indicators reflecting the degree of liver cell damage (FIGS. 27A˜27C) and bile stasis (FIGS. 28A˜28E), and liver immunohistochemical detection was performed (FIGS. 29A, 29B and 30A˜30F).

Experiment [6] has as its system HepG2 cells. The experiment is described as follows: Protection of the cell membrane of HepG2 after CCl4 injury (DiO/DAPI confocal imaging). The settings on record: HTMA pre-treatment 12 hours, then 70% CCl4 injury fluid 1 hour; vs model group. Format: cell-based. Here is the method:
Well-growing HepG2 cells were plated into confocal dishes with 1 mL of cell suspension containing 5×10^5 cells per dish. After 24 hours of incubation, pre-treat the cells with HTMA for 12 hours. The culture medium was removed from the confocal dish, then phenol red-free DMEM medium was added to the control group, 70% CCl4 injury fluid was added to the model and treatment groups. The dishes were placed in a 37° C. incubator for 1 hour to induce liver injury. After modeling, the culture medium was removed, the cells were rinsed with PBS, and fixed with 4% paraformaldehyde at room temperature for 10 minutes. Then the cells were rinsed with PBS three times, each time for 5 minutes. 10 μM DiO was added to the dish and stained the cells at room temperature for 30 minutes. Then the cells were rinsed with PBS three times, each time for 5 minutes. DAPI was dropped to counterstain the cell nucleus, incubating it in the dark for 30 minutes, and then the cells were rinsed with PBS three times. The images of the cells were captured using a laser scanning confocal microscope (Leica TCS SP8). The experimental design includes two positive controls: silymarin(S) and obeticholic acid (OBC).

Where [7] appears, read: high-dose HTMA (HH) 10 mg/kg, oral gavage, vs liver injury model group, blood.

Structures are written as SMILES. Numbered stars: 1 amine (or outer) side, 2 acyl side, 3 side chain; on linkers, the order of the positions; unused ones are H or OH. Square brackets hold non-standard residues; d marks the D form. Peptide text beside a SMILES is read from it. * marks the point of attachment. X3 = O=C1C=C(CCC/C=C/C=C/C(=O)[*:2])CC(C(O)N[*:1])O1; X4 = O=C1C=C(CCC/C=C/C=C/C(=O)[*:2])CC(CN[*:1])O1; NMeW = CN[CH](Cc1c[nH]c2ccccc12)C(=O)O; X2 = C/C(=C\C(C)N[*:1])C(=O)[*:2]; Dhb = C/C=C(\N)C(=O)O; X1 = C/C=C/C=C\C(=O)*; Dha = C=C(N)C(=O)O

For `C=C(NC(=O)/C=C/C=C/CCCC1=CC(=O)OC(CNC(=O)/C(C)=C/C(C)NC(=O)/C=C\C=C\C)C1)C(=O)NC(C(=O)N/C(=C\C)C(=O)N(C)C(Cc1c[nH]c2ccccc12)C(=O)OC)C(C)OC` (stereo not shown) [HTMB, Hangtaimycin B] (X1-[X2][X4][Dha]T(Me)[Dhb][NMeW]-OMe; configuration not given here), in the experiment with HepG2 cells [1], the ALT levels entry is “significantly reduced” and the AST levels entry is recorded as “significantly reduced”. Further, the “improvement of the inflammation caused by carrageenan, comparison among HTMP, HTMA and HTMB” value in experiment [2] is “best results”. For the same compound, the “right hind foot thickness” value in [2] (P<0.05) was “reduced”. The “number of leukocytes per unit area (HE staining)” value in [2] (carrageenan+HTMB group vs carrageenan+solvent group, P<0.05) was “statistical difference”. Further, the “number of body twists” value in [3] (3 mg/kg tail vein) is listed as “significantly lower”. For the same compound, the “number of body twists” value in experiment [3] (10 mg/kg tail vein) was “significantly lower”. Moreover, the “CPP scores, morphine-induced CPP” value with morphine-induced CPP is listed as “inhibit”. Moreover, the “antioxidant capacity (DPPH free radical scavenging)” value in experiment [4] is “have antioxidant capacity”. Moreover, the “survival rate of bladder cancer” value with bladder cancer is given as “significantly inhibited”. Moreover, the “survival rate of renal cancer” value with renal cancer is on record as “significantly inhibited”. Moreover, the “survival rate of breast cancer” value with breast cancer (P<0.05) is given as “significantly inhibited”.

As for `C=C(NC(=O)/C=C/C=C/CCCC1=CC(=O)OC(C(O)NC(=O)/C(C)=C/C(C)NC(=O)/C=C\C=C\C)C1)C(=O)NC(C(=O)N/C(=C\C)C(=O)N(C)C(Cc1c[nH]c2ccccc12)C(=O)OC)C(C)OC` (stereo not shown) [HTMA, Hangtaimycin A] (X1-[X2][X3][Dha]T(Me)[Dhb][NMeW]-OMe; configuration not given here), in the experiment on HepG2 cells [1], the ALT levels entry is listed as “significantly reduced” and the AST levels entry is “significantly reduced”. Besides, the “effects on other biochemical indicators relative to high-dose HTMA” value in experiment [5] (2.5 mg/kg oral gavage (HTMA low dose LH)) is “weaker”. Moreover, the LDH levels result in [5] (2.5 mg/kg oral gavage (HTMA low dose LH), vs liver injury model group) is reported as “significantly reduced”. For the same compound, the “effects on other biochemical indicators relative to high-dose HTMA” value in experiment [5] (5 mg/kg oral gavage (HTMA medium dose MH; silymarin)) is on record as “weaker”. For the same compound, the LDH levels result in experiment [5] (5 mg/kg oral gavage (HTMA medium dose MH; silymarin), vs liver injury model group) was “significantly reduced”. For the same compound, in experiment [5] (10 mg/kg oral gavage (HTMA high dose HH; obeticholic acid), vs liver injury model group), the “levels of LDH” value is given as “significantly reduce”. The “pathological conditions of liver tissue damage (liver tissue staining)” value in [5] (all doses of HTMA (2.5, 5, 10 mg/kg oral gavage), vs liver injury model group) was “therapeutic effect”. Further, in [5] (setting [7]), the “levels of ALP” value is “significantly reduce”, the “levels of ALT” value is on record as “significantly reduce”, the “levels of AST” value was “significantly reduce” and the “levels of GGT” value is reported as “significantly reduce”. Besides, in experiment [5] (setting [7]), the “levels of TBA” value is listed as “significantly reduce” and the “levels of TBIL” value is listed as “significantly reduce”. Besides, in the experiment with HepG2 cells [6], the “cell membrane morphology (DiO fluorescence)” value is on record as “protective effect on the cell membrane”. Further, the “right hind foot thickness” value in experiment [2] (P<0.05) is reported as “reduced”. In addition, the “antioxidant capacity (DPPH free radical scavenging)” value in experiment [4] is recorded as “does not”. Besides, the “survival rate of bladder cancer” value in the experiment with bladder cancer is recorded as “significantly inhibited”. Besides, the “survival rate of breast cancer” value in the experiment on breast cancer (P<0.01) is “significantly inhibited”.
